The text below walks through data of patent US20220249463A1, “METHODS OF ALTERING CARDIAC REMODELING USING COMPOUNDS THAT PROMOTE GLUCOSE OXIDATION” (IMBRIA PHARMACEUTICALS, INC., priority 2019, published 2022).

Holding throughout (assay type): in vivo
Test [1] relates to TAC mice. In words: TAC mice, six weeks treatment: heart weight and heart weight/body weight. The settings on record: 6 weeks; TMZ 6, NA 2.4, CV-8814 7.5, CV-8972 10 mg/kg/day.
In test [2] the test system is TAC mice. In words: TAC mice: left ventricular pressure with Mikro-tip catheter. The settings on record: end of 6-week treatment, TMZ 6, NA 2.4, CV-8814 7.5, CV-8972 10 mg/kg/day.
The subject of test [3] is TAC mice. Briefly: TAC mice: echocardiography.
Test [4] has as its system TAC mice. Briefly: TAC mice: cardiac fibrosis, Masson's trichrome. The settings on record: end of 6-week experiment.

As to `O=C(O)c1cccnc1` [NA, nicotinic acid, reference compound], the “cardiac remodeling in TAC mice (in words)” value in the test with TAC mice [1] was “no significant effect on cardiac remodeling”. Moreover, the “left ventricular developed pressure (LVDP)” value in the test on TAC mice [2] was found to be 141±20 mm Hg. Besides, the IVRT in the test on TAC mice [3] (6-weeks after TAC) turned out to be 29 ± 2 ms. In the test with TAC mice [3] (TAC mice, NA 2.4 mg/kg/day), the “IVSd (in words)” value is listed as “decreased IVSd” and the “LV mass (in words)” value is reported as “no effect on LV mass”. Moreover, the “cardiac fibrosis (fibrotic area to whole heart tissue area)” value in the test with TAC mice [4] amounted to 8.2±1%.
